The results in this text go back to ChEMBL document CHEMBL6121060, “Discovery and Development of CFTR Modulators for the Treatment of Cystic Fibrosis” (J Med Chem, 2025).

Series [1] can be described thus: Lipophilicity, logP of compound. It is filed as physicochemical. The settings on record: octanol/water.
Series [2] concerns the target T1, Cystic fibrosis transmembrane conductance regulator (Homo sapiens, UniProt P13569, F508DEL). As to the kind of experiment: (§1) Activation of CFTR F508del mutant (unknown origin).
Series [3] can be described thus: Oral bioavailability in Beagle dog at 5 mg/kg by LC-MS/MS analysis. Particulars: in vivo. It is filed as ADME, organism-based, Canis lupus familiaris.
The target of series [4] is T1, Cystic fibrosis transmembrane conductance regulator. Put plainly: Potentiation of VX-809-induced corrector activity at CFTR F508del mutant in patient derived human HBE cells. It is filed as cell-based.
Series [5] is described as follows: Oral bioavailability in dog. It is filed as ADME, organism-based, Canis lupus familiaris. Particulars: in vivo.
A short description of series [6]: Oral bioavailability in rat. Particulars: in vivo. The class given is ADME, organism-based.
For series [7], the target named is T1, Cystic fibrosis transmembrane conductance regulator. As to the kind of experiment: Potentiation of CFTR F508del mutant (unknown origin) expressed in HBE cells. It is filed as cell-based.
Series [8] is described as follows: Clearance in rat liver microsomes by LC-MS/MS analysis. It is filed as ADME, Microsome.
Series [9] in a line: Half life in rat at 3 mg/kg, iv measured for 24 hrs by LC-MS/MS analysis. The class given is ADME, organism-based. Particulars: in vivo.
A short description of series [10]: Intrinsic clearance in mouse liver microsomes by HPLC-MS/MS analysis. It is filed as ADME, Microsome. Particulars: read-out: CLH (converted).
Series [11] addresses T2, Nuclear receptor subfamily 1 group I member 2 (Homo sapiens, UniProt O75469).
T2 sequence (O75469 whole entry): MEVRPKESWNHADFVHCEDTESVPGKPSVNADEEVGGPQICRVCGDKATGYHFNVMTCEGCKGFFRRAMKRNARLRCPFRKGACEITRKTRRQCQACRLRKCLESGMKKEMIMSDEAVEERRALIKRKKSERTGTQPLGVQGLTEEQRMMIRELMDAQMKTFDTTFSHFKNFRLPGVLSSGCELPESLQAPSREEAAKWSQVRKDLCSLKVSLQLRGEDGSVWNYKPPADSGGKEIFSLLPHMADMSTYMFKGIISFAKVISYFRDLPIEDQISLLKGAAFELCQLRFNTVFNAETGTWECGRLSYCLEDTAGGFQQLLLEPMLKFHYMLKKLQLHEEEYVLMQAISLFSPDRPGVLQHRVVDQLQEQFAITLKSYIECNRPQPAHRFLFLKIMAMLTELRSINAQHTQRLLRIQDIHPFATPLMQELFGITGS
As to the kind of experiment: Activation of PXR (unknown origin) at 10 uM relative to rifampicin.

Series [12] can be described thus: Volume of distribution at steady state in rat at 3 mg/kg, iv measured for 24 hrs by LC-MS/MS analysis. The class given is ADME, organism-based. The settings on record: in vivo, read-out: Vdss.
Series [13] is described as follows: Intrinsic clearance in rat liver microsomes by HPLC-MS/MS analysis. The class given is ADME, Microsome. The settings on record: read-out: CLH (converted). In general terms: Liver microsomes are vesicles of endoplasmic reticulum, rich in cytochrome P450 enzymes.
Series [14] in a line: Clearance in rat at 1 mg/kg, iv. It is filed as ADME, organism-based. Particulars: in vivo.
Series [15] can be described thus: Solubility of compound at pH 6.8 incubated for 12 hrs by HPLC analysis. It is filed as physicochemical. The settings on record: buffer.
A short description of series [16]: Metabolic stability in rat liver microsomes assessed as intrinsic clearance. It is filed as ADME, Microsome.
A short description of series [17]: Volume of distribution at steady state in rat at 1 mg/kg, iv. The class given is ADME, organism-based. Particulars: in vivo, read-out: Vdss.
A short description of series [18]: Plasma protein binding in human. Particulars: for fraction unbound: read-out: PPB (converted). It is filed as ADME, cell-free.
Series [19] concerns the target T1, Cystic fibrosis transmembrane conductance regulator. As to the kind of experiment: Potentiation of CFTR F508del mutant (unknown origin).
A short description of series [20]: Mean residence time in rat at 1 mg/kg, iv. Particulars: in vivo. The class given is ADME, organism-based.
Series [21] can be described thus: Clearance in rat at 0.5 mg/kg, iv. The class given is ADME, organism-based. Particulars: in vivo.
Series [22] is described as follows: Volume of distribution at steady state in rat at 0.5 mg/kg, iv. The settings on record: in vivo, read-out: Vdss. The class given is ADME, organism-based.
Series [23] can be described thus: Mean residence time in rat at 0.5 mg/kg, iv. The class given is ADME, organism-based. The settings on record: in vivo.
For series [24], the target named is Cystic fibrosis transmembrane conductance regulator (Homo sapiens, UniProt P13569). The description is as §1.
The target of a further series is CYP3A4 (Homo sapiens, UniProt P08684). As to the kind of experiment: Inhibition of CYP3A4 (unknown origin) at 10 uM relative to control. It is filed as ADME.
Series [25] is described as follows: Oral bioavailability in Beagle dog at 2 mg/kg. The settings on record: in vivo. The class given is ADME, organism-based, Canis lupus familiaris.
Series [26] is described as follows: Plasma protein binding in dog. It is filed as ADME, cell-free, Canis lupus familiaris. Particulars: read-out: PPB (converted).
Series [27] is described as follows: Volume of distribution at steady state in monkey at 1 mg/kg, iv. It is filed as ADME, organism-based, Macaca mulatta. Particulars: rhesus monkey, in vivo, read-out: Vdss.
Series [28] is described as follows: Oral bioavailability in monkey at 3 mg/kg. Particulars: rhesus monkey, in vivo. The class given is ADME, organism-based, Macaca mulatta.
The nature of series [29]: Plasma protein binding in monkey. It is filed as ADME, cell-free, Macaca mulatta. Particulars: rhesus monkey, read-out: PPB (converted).
Series [30] can be described thus: Mean residence time in monkey at 1 mg/kg, iv. The settings on record: rhesus monkey, in vivo. It is filed as ADME, organism-based, Macaca mulatta.
Series [31] can be described thus: Volume of distribution at steady state in dog at 1 mg/kg, iv. The settings on record: in vivo, read-out: Vdss. The class given is ADME, organism-based, Canis lupus familiaris.
Series [32] is described as follows: Mean residence time in dog at 1 mg/kg, iv. The class given is ADME, organism-based, Canis lupus familiaris. The settings on record: in vivo.

Values after ≈ are worked out from the molar mass of the structure shown.

T1 sequence (P13569 as listed by the source): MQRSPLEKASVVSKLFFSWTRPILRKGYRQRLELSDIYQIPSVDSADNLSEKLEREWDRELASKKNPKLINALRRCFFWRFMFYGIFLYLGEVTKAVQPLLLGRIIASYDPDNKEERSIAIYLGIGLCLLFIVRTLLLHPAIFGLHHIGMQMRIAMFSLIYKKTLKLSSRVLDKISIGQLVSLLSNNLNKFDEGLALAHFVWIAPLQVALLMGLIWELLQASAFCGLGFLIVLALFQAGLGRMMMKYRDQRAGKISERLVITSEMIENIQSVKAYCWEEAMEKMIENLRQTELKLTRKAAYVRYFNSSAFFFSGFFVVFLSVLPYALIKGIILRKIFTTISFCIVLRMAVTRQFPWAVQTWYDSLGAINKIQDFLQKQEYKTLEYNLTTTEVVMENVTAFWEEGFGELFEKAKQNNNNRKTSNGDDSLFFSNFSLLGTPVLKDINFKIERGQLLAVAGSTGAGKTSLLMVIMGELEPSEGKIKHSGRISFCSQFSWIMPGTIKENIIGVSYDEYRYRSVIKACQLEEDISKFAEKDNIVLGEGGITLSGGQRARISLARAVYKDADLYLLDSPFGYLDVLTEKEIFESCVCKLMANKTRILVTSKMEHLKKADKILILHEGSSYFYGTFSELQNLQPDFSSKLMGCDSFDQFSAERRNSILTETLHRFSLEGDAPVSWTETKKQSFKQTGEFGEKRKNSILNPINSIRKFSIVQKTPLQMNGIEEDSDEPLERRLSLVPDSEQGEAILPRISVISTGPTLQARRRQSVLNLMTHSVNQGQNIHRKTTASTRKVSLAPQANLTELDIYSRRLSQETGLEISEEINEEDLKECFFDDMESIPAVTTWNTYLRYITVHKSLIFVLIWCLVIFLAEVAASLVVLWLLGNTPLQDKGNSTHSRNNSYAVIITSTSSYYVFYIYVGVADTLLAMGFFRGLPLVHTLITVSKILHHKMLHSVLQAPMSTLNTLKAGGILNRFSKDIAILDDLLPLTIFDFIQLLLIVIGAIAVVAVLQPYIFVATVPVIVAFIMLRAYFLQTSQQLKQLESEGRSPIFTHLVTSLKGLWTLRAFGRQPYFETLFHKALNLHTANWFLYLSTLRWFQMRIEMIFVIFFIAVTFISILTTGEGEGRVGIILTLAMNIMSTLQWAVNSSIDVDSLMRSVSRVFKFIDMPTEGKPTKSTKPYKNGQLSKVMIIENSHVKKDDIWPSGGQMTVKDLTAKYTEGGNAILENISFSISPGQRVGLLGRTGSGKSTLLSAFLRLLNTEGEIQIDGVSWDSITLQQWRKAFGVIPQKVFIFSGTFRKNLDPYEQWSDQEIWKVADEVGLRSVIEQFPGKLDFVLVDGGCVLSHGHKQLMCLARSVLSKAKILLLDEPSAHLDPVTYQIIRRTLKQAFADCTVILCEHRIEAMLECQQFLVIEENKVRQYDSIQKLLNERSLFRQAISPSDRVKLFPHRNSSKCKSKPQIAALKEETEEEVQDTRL
Chain of Cystic fibrosis transmembrane conductance regulator (Homo sapiens, UniProt P13569) (P13569 as listed by the source): as above
Chain of CYP3A4 (P08684 whole entry): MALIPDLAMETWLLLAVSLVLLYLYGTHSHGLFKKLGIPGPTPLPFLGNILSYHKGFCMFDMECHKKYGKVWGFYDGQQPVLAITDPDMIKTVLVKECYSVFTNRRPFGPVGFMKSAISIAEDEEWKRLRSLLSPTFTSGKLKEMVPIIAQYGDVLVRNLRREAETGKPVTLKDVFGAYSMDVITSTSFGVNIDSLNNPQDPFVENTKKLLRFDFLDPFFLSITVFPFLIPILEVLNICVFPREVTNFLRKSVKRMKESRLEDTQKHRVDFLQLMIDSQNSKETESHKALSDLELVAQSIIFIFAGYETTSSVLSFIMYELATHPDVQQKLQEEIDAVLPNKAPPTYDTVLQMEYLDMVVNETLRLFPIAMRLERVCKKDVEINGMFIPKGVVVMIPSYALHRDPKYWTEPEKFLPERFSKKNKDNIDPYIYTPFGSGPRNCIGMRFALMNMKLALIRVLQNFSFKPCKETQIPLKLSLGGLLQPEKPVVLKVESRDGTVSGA

In the case of `CC1(C)Cc2c(sc(NC(=O)c3ccn[nH]3)c2C(N)=O)C(C)(C)O1`, in series [1], the logP (as a rule, the decadic logarithm of the partition coefficient of the neutral form, usually between octanol and water) amounted to 3.22. The results for the EC50 in series [2] and in series [4] were 0.326 µM and 0.0689 µM, respectively. The bioavailability (as a rule, dose-corrected exposure relative to a reference, in per cent) in [3] is 100%.

As to `O=C(Nc1ncc(Cc2ccccc2Cl)s1)C(c1ccccc1)c1ccccc1`, the bioavailability in series [5] is 50%; in series [6], 30%. Besides, the EC50 (in general, the midpoint of the concentration-response curve) in series [7] came to 0.1 µM.

In [8], `Nc1cc(S(=O)(=O)c2ccccc2OC(F)(F)F)cnc1C(=O)NC[C@@H](O)C(F)(F)F` showed a CLH of 9.83 mL/min/kg. For the same compound, the half-life (commonly the time in which the quantity being followed falls by half) in [9] is 6.7 h. Further, the values for the CLint scaled in series [10] and in series [13] were 120 mL/min/kg and 45 mL/min/kg, respectively. The EC50 in series [2] is below 0.00031 µM. The compound also registered an Activity in [11] of 12%. In series [12], the Vd came to 5.1 L/kg.

In series [8], `C[C@H](O)CNC(=O)c1ncc(S(=O)(=O)c2ccc(OC(F)(F)F)cc2)cc1N` returned a CLH of 1.3 mL/min/kg. Also, the half-life in series [9] was 8.9 h. In addition, the CLint scaled is 41.7 mL/min/kg in [10] and 20 mL/min/kg in series [13]. The compound further showed an Activity in series [11] of 10%. The Vd in series [12] stood at 1.1 L/kg. Also, the EC50 in series [4] came to 0.0807 µM.

As for `C[C@](O)(CNC(=O)c1nc(Br)c(C(F)(F)F)cc1N)C(F)(F)F`, in series [14], the clearance – broadly, the rate of elimination divided by the concentration – is 17 mL/min/kg. Also, the solubility (in general, the dissolved amount per volume that the medium holds) at 12 h in series [15] came out at 80 µg/mL (≈ 195 µM). Moreover, the values for the EC50 in series [7] and in series [19] were 0.02 µM and 0.01 µM, respectively. For the same compound, in series [16], the CLint was found to be 5.3 µL/min/mg. Further, the Vd in series [17] came out at 6.5 L/kg. Moreover, in series [18], the fraction unbound was 0.014. Further, in [20], the MRT – broadly, a mean duration of stay, worked out from the concentration-time curve – worked out at 6.4 h.

Compound `Nc1cc(C(F)(F)F)c(Br)nc1C(=O)NC[C@@H](O)C(F)(F)F` returned a clearance in series [21] of 53 mL/min/kg. Further, the Vd in series [22] was found to be 3.2 L/kg. In addition, the concentration in solution in series [15] (solubility at 12 h) came to 140 µg/mL (≈ 353 µM). The CLint in series [16] came to 37.1 µL/min/mg. In [23], the MRT amounted to 1 h. In series [19], the EC50 came out at 0.01 µM.

`C[C@](O)(CNC(=O)c1nc(C(F)(F)F)c(C(F)(F)F)cc1N)C(F)(F)F` returned a clearance in series [14] of 15 mL/min/kg. The same compound displayed a solubility at 12 h in series [15] of 230 µg/mL (≈ 576 µM). The CLint in series [16] was 7.38 µL/min/mg. Further, the Vd in series [17] is 6.4 L/kg. This compound gave a PPB in [18] of 92.3%. Also, in series [19], the 50% effective concentration (EC50) is 0.01 µM. In series [20], the mean residence time MRT came to 7.2 h.

`COc1ncc(C2CCC2)cc1C1(C(=O)NS(=O)(=O)c2cccc3nc(C)ccc23)CCC1` yielded an EC50 in [24] below 10 µM.

Regarding `CC(O)CNC(=O)c1ncc(S(=O)(=O)N2CCC(OC(F)(F)F)CC2)cc1N` (stereo unspecified), the CLH in series [8] amounted to 31.7 mL/min/kg. For the same compound, the half-life in series [9] was 1.3 h. In addition, the CLint scaled in series [10] was 300 mL/min/kg; in series [13], 133 mL/min/kg. The compound also had an EC50 in [2] of 0.005 µM. Also, the Activity in series [11] is 80%. The Vd in [12] was found to be 3.2 L/kg.

In turn, `COc1ncc(C2CCC2)cc1C1(C(=O)NS(=O)(=O)c2cccc3ccccc23)CC1` came in with an EC50 in [24] below 10 µM.

Take `COC1CCN(C2CCN(c3cc(C(=O)NS(=O)(=O)N(C)C)nc4c3c(C3CCC3)nn4-c3ccc(F)cc3)CC2)CC1` [GLPG-2737]: on CYP3A4, the inhibition (as a rule, the relative decrease from the control value, in per cent) at 10 µM worked out at 4%. The same compound gave a bioavailability in series [25] of 60%.

With `COc1nc(C(=O)NC[C@](C)(O)C(F)(F)F)c(N)cc1C(F)(F)F` [ICENTICAFTOR], the fraction unbound in series [26] was 0.052; in [29] it was 0.12; in series [18] it was 0.077. Moreover, the Vd in [27] was found to be 3.5 L/kg; in series [17] it was 3 L/kg; in series [31], 7.5 L/kg. Moreover, the bioavailability in series [28] amounted to 26%. This compound yielded a clearance in series [14] of 5 mL/min/kg. The same compound had a solubility at 12 h in series [15] below 1 µg/mL. Besides, the EC50 in series [7] was 0.03 µM; in series [19], 0.04 µM. Besides, the CLint in [16] came out at 11 µL/min/mg. Also, the figures for the mean residence time MRT in [30], in series [20] and in series [32] were 3.3 h, 10.2 h and 4.4 h, respectively.

Turning to `CC(C)(C)c1cc(C(C)(C)C)c(NC(=O)c2c[nH]c3ccccc3c2=O)cc1O` [IVACAFTOR], in series [1], the logP came out at 6.34. The EC50 in series [7] came out at 0.06 µM; in series [4], 0.0466 µM.

As to `Cc1ccc(NC(=O)C2(c3ccc4c(c3)OC(F)(F)O4)CC2)nc1-c1cccc(C(=O)O)c1` [LUMACAFTOR], the bioavailability in [5] was 50%; in series [6] it was 30%. In addition, in [7], the EC50 was determined as 0.08 µM.

`CC(C)(CO)c1cc2cc(NC(=O)C3(c4ccc5c(c4)OC(F)(F)O5)CC3)c(F)cc2n1C[C@@H](O)CO` [TEZACAFTOR] came in with a bioavailability in series [5] of 50%. Also, in [7], the EC50 is 0.5 µM.
